Source: US4083987A, “4-Imino-1,3-diazabicyclo-(3.1.0)-hexan-2-one as a cancerostat and immuno-stimulant” (Boehringer Mannheim GmbH, priority 1975, dated 1978)

What was measured:
[1] = test system: antibody-forming spleen cells; experiment: Number of antibody-forming spleen cells by Jerne's method after intravenous administration; format: in vivo, mice; conditions: three days; for number of antibody-forming spleen cells: mice immunized with sheep erythrocytes, control 4,600; for antibody-forming spleen cells, % of the control: mice
Procedure: 20 male white mice with a body weight of 20 to 25 g were each immunized with 1 ml preserved sheep erythrocytes (1 ml contains 5 × 10^8 erythrocytes). On the same day, 4-imino-1,3-diazabicyclo[3.1.0]hexan-2-oneor a comparative active material, dissolved in 5 ml physiological saline/kg. mouse body weight, were administered intravenously. For control purposes, 20 animals were also immunized with 1 ml sheep erythrocytes and treated with 5 ml/kg physiological saline. Three days after administration, the spleens of the animals were removed under sterile conditions and the number of antibody-forming spleen cells determined according to Jerne's technique. The individual values were determined.

[2] = test system: Walker sarcoma 256; experiment: Cancerostatic effectiveness: inhibition of tumor growth of Walker sarcoma 256 after a single administration; format: in vivo, Sprague-Dawley rats; conditions: for % inhibition of the growth of Walker sarcoma 256: single administration, tumor weight after 10 days
Procedure: Sprague-Dawley rats with a body weight of 80 to 120 g and an age of 6 to 8 weeks were subcutaneously inoculated in the neck with tumor cells. In each case, there was used 0.1 ml of an aqueous suspension of about 10^6 tumor cells of the Walker sarcoma 256 (solid, rat).
4-Imino-1,3-diazabicyclo[3.1.0]hexan-2-one was dissolved in physiological saline solution (in each case, the desired amount in 5 ml solution/kg body weight of experimental animal). 6 Hours after inoculation of the animals, these solutions were administered intravenously or orally by means of a stomach tube. The control animals received 5 ml/kg body weight of physiological saline. 20 experimental animals and 20 control animals were used per experiment. The animals were sacrificed with ether after 10 days, the tumors extirpated and the weight of the tumors of the control group compared with those of the experimental group.

[3] = test system: leukocytes; experiment: Immunity-stimulating action: corpuscular blood components (leukocytes, lymphocytes, erythrocytes) after a single intravenous administration; format: in vivo, Sprague-Dawley rats; conditions: for number of leukocytes/mm^3: third day, control 7,300
Procedure: The active material, dissolved in 5 ml physiological saline, was administered intravenously into a vein in the tails of 8 Sprague-Dawley rats with an average body weight of 200 to 250 g. As controls, there were used 8 rats which were only treated with 5 ml physiological saline per kg. body weight. In the following days, 1 to 2 drops of blood were taken from a tail vein and the corpuscular blood components determined. The average values were determined statistically from the 8 values of the individual animals.

[4] = Acute toxicity (LD50), rats; conditions: rat, in vivo, single intravenous dose
[5] = Solubility in water, physiological saline and aqueous alkali metal hydroxide solutions; format: physicochemical
[6] = Stability; format: physicochemical
[7] = in vivo; conditions: mouse, iv
[8] = Acute toxicity (LD50), mice; conditions: mouse, in vivo, po
[9] = single intravenous, rats, in words

Compound: O=P1(N(CCCl)CCCl)NCCCO1 (centres unmarked) [cyclophosphamide]
- number of antibody-forming spleen cells ([1]; 125.0 mg/kg intravenous): 460 spleen cells
- antibody-forming spleen cells, % of the control ([1]; 125.0 mg/kg intravenous): 10 % of the control

Compound: phytohaemagglutinin
- number of antibody-forming spleen cells ([1]; 500.0 mg/kg intravenous): 1,400 spleen cells
- antibody-forming spleen cells, % of the control ([1]; 500.0 mg/kg intravenous): 30 % of the control

Compound: N=C1NC(=O)N2CC12 (centres unmarked) [4-imino-1,3-diazabicyclo-[3.1.0]hexan-2-one]
- tumor growth ([2]; intravenous and oral administration): significantly inhibited
- % inhibition of the growth of Walker sarcoma 256 ([2]; intravenous, 0.1 mg/kg): 7.5%
- % inhibition of the growth of Walker sarcoma 256 ([2]; intravenous, 1.0 mg/kg): 17.5%
- % inhibition of the growth of Walker sarcoma 256 ([2]; intravenous, 10.0 mg/kg): 49.5%
- % inhibition of the growth of Walker sarcoma 256 ([2]; intravenous, 100.0 mg/kg): 31.0%
- % inhibition of the growth of Walker sarcoma 256 ([2]; intravenous, 200.0 mg/kg): 39.5%
- % inhibition of the growth of Walker sarcoma 256 ([2]; oral, 5.0 mg/kg): 20.0%
- % inhibition of the growth of Walker sarcoma 256 ([2]; oral, 125.0 mg/kg): 62.0%
- number of leukocytes/mm^3 ([3]; 2 mg/kg rat, single intravenous): 10,300 leukocytes/mm^3
- number of leukocytes/mm^3 ([3]; 5 mg/kg rat, single intravenous): 9,800 leukocytes/mm^3
- number of leukocytes/mm^3 ([3]; 10 mg/kg rat, single intravenous): 10,800 leukocytes/mm^3
- number of leukocytes/mm^3 ([3]; 20 mg/kg rat, single intravenous): 12,300 leukocytes/mm^3
- number of leukocytes/mm^3 ([3]; 40 mg/kg rat, single intravenous): 10,800 leukocytes/mm^3
- number of leukocytes/mm^3 ([3]; 75 mg/kg rat, single intravenous): 11,800 leukocytes/mm^3
- number of leukocytes/mm^3 ([3]; 150 mg/kg rat, single intravenous): 8,000 leukocytes/mm^3
- number of leukocytes/mm^3 ([3]; 400 mg/kg rat, single intravenous): 6,500 leukocytes/mm^3
- dosage necessary for immunity stimulation ([3]; deduced from the experiments, all at once or in several doses): 1 to 50 mg/kg body weight
- time after which the effect slowly decreases ([3]; immunity stimulation): about 2 weeks
- number of leukocytes [3, 9]: increased considerably
- percentage proportion of the lymphocytes [3, 9]: increased
- number of erythrocytes ([3]; single intravenous, rats, whole experimental period): did not change significantly
- time until the values of the control animals were again reached ([3]; single intravenous, rats, only after the expiry of): 20 to 25 days
- number of antibody-forming spleen cells ([1]; 2.5 mg/kg intravenous): 23,000 spleen cells
- antibody-forming spleen cells, % of the control ([1]; 2.5 mg/kg intravenous): 500 % of the control
- LD50 [4]: 660 mg/kg
- water solubility [5]: good water solubility
- solubility ([5]; physiological saline and aqueous alkali metal hydroxide solutions): very readily soluble
- acid stability ([6]; acid): acid labile
- stability in dry form ([6]; dry form): stable in dry form
- LD50 [7]: 750 mg/kg
- LD50 [8]: > 4000 mg/kg
